# US20110136762A1, “FUNGICIDAL PYRIDAZINES” (E.I. Du Pont de Nemours and Company, priority 2008, published 2011)
# Marks after values point to notes of the source that are not given here.
# How the values were obtained:
# Format in all cases: in vivo
# Alternaria solani = test: Test E: tomato early blight, preventive spray on tomato seedlings, visual disease rating; settings: 40 ppm (marked *), 100 = 100% disease control, 0 = no disease control relative to controls; for pest or weed control at 40 ppm: Alternaria solani
# Summary of the method: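 Tomato seedlings sprayed to run-off with test suspension at 200 ppm (equivalent to 500 g/ha), or 40 ppm where marked "*", as a preventive treatment before A. solani challenge. Disease then rated visually.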
# Erysiphe graminis = test: Test A: wheat powdery mildew, preventive spray on wheat seedlings, visual disease rating; settings: 40 ppm (marked *), 100 = 100% disease control, 0 = no disease control relative to controls; for pest or weed control at 40 ppm: Blumeria graminis, 192 h
# Summary of the method: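 Seedlings were sprayed to run-off with test suspension at 200 ppm (500 g/ha), or 40 ppm where marked. They were dust-inoculated with spores the next day and kept 8 days at 20 °C. Disease was then rated visually.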
# Septoria nodorum = test: Test D: wheat glume blotch, preventive spray on wheat seedlings, visual disease rating; settings: 40 ppm (marked *), 100 = 100% disease control, 0 = no disease control relative to controls; for pest or weed control at 40 ppm: Parastagonospora nodorum
# Summary of the method: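 Wheat seedlings sprayed to run-off with compound at 200 ppm (500 g/ha), or 40 ppm where marked, then inoculated with Septoria nodorum spores the next day. Held 48 h in saturated atmosphere at 20° C, then 7 days in a growth chamber at 20° C before visual disease rating.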
# Botrytis cinerea = test: Test F: tomato Botrytis, preventive spray on tomato seedlings, visual disease rating; settings: 40 ppm (marked *), 100 = 100% disease control, 0 = no disease control relative to controls; for pest or weed control at 40 ppm: Botrytis cinerea
# Summary of the method: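 Preventive test: tomato seedlings sprayed to run-off at 200 ppm (500 g/ha) or, where marked *, 40 ppm, then inoculated next day with B. cinerea spores. Kept 48 h at saturated humidity and 20° C, then 3 days at 24° C. Disease assessed visually.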
# Septoria tritici = test: Test C: wheat leaf blotch, preventive spray on wheat seedlings, visual disease rating; settings: 40 ppm (marked *), 100 = 100% disease control, 0 = no disease control relative to controls; for pest or weed control at 40 ppm: Zymoseptoria tritici, 504 h
# Summary of the method: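 Wheat seedlings were sprayed to run-off with test suspension at 200 ppm (500 g/ha), or at 40 ppm where marked *. They were inoculated with spores the next day and held in saturated atmosphere at 20° C for 48 h. After a further 19 days in a growth chamber at 20° C, disease was rated visually.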
# [1] = test system: Puccinia recondita f. sp. tritici; test: Test B: wheat leaf rust, preventive spray on wheat seedlings, visual disease rating; settings: 40 ppm (marked *), 100 = 100% disease control, 0 = no disease control relative to controls; for pest or weed control at 40 ppm: 192 h
# Summary of the method: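 Seedlings were sprayed to run-off at 200 ppm (500 g/ha), or at 40 ppm where marked *, then inoculated with spores the next day. Plants were held at saturated humidity at 20° C for 24 h and then in a growth chamber at 20° C for 7 days before visual disease rating.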
SMILES,pest or weed control at 40 ppm (Alternaria solani),pest or weed control at 40 ppm (Erysiphe graminis),pest or weed control at 40 ppm (Septoria nodorum),pest or weed control at 40 ppm (Botrytis cinerea),pest or weed control at 40 ppm (Septoria tritici),pest or weed control at 40 ppm [1],"Test E rating (disease control, tomato early blight) (Alternaria solani)","Test A rating (disease control, wheat powdery mildew) (Erysiphe graminis)","Test D rating (disease control, wheat glume blotch) (Septoria nodorum)","Test F rating (disease control, tomato Botrytis) (Botrytis cinerea)","Test C rating (disease control, wheat leaf blotch) (Septoria tritici)","Test B rating (disease control, wheat leaf rust) [1]"
"COc1cncc(-c2c(-c3ccccc3F)nnc(Cl)c2-c2c(F)cc(F)cc2F)c1 [Compound 44, 3-chloro-6-(2-fluorophenyl)-5-(5-methoxy-3-pyridinyl)-4-(2,4,6-trifluorophenyl)pyridazine]",100%,100%,100%,100%,99%,99%,–,–,–,–,–,–
"COc1cc(OC)cc(-c2c(-c3ccccc3F)nnc(Cl)c2-c2c(F)cc(F)cc2F)c1 [Compound 45, 3-chloro-5-(3,5-dimethoxyphenyl)-6-(2-fluorophenyl)-4-(2,4,6-trifluorophenyl)pyridazine]",100%,100%,100%,100%,99%,100%,–,–,–,–,–,–
COc1cncc(-c2c(-c3ccccc3F)nnc(C)c2-c2c(F)cc(F)cc2F)c1 [Compound 46],–,–,–,–,–,–,100* %,97* %,0* %,100* %,99* %,100* %
